Measurements: patent publication US20070179084A1, “Process for reducing the concentration of blood glucose in a diabetic patient” (Nation Chiao Tung University, priority 2006, published 2007)

Key:
[1] = test system: C2C12 cells; assay: Glucose absorption (2-deoxy-D-glucose uptake) by differentiated C2C12 myotubes, Amplex Red Glucose/Glucose Oxidase Assay Kit; format: cell-based, mouse; conditions: for glucose absorption in contrast to C2C12 cells without stimulation (in words): 0.1 μM, 1 μM, 10 μM and 100 μM metal solution
Description: The cells are cultured and differentiate. […] Then, a half of the culture media are removed and replaced with fresh differentiation media (90% DMEM (Dulbecco's Modified Eagle's Medium) and 10% FBS (fetal bovine serum)). […] In normal physiological conditions, the myotube differentiates from the myoblast and aggregates to form muscle. Therefore, the myotube has a cell type most similar to muscle, so that the cell type of used cells is a myotube in the whole test experiment. The glucose extracted from the cells is determined. […] When starting the experiment, add the stimulating samples with suitable concentration to the culture media and incubate at 37° C. for 30 minutes (mins). […] Finally, incubate the cells on ice for 10 mins, to stop the reaction. Then, remove the culture media, and wash the cells three times with an ice-cold PBS solution. After washing, scrape the cells from the plate with ice-cold 65% EtOH and sonicate the cells. After spun in a centrifuge at 13000 rpm and 4° C. for 15 mins, transfer the supernatant to fresh the eppendorf tube and then spin the remainder in the centrifuge again to collect the supernatant again. The collected supernatants are mixed and dry the supernatant by vacuum centrifugation. After drying, the sample is acquired and assayed for […] levels using the Amplex Red Glucose/Glucose Oxidase Assay Kit.

[2] = test system: C2C12 cells; assay: Observation of change in cell type, floating and damage of C2C12 cells after stimulation
Text: In FIG. 4, the columns with the same patterns represent the C2C12 cells stimulated by the same metal ion (or oxidized metal ion) solutions and the sign under the transverse axle indicates the concentration of the metal ion (or oxidized metal ion) solution, corresponding to each column.
In FIG. 8, the columns with the same patterns represent treatment with the same complex and the sign under the transverse axle indicates the concentration of the complex corresponding to each column.

[3] = 40 μg/ml complex, co-treated with 10 μM insulin, vs no stimulating sample
[4] = 40 mg/ml complex solution including 1 mM metal ion and the insulin
[5] = 1 μM metal solution, co-treatment with 10 μM insulin, vs no stimulating sample
[6] = 10 μM metal solution, 30 min, vs C2C12 cells without stimulation
[7] = 100 μM metal solution, 30 min, vs C2C12 cells without stimulation
[8] = 100 μM metal solution, co-treatment with 1 μM insulin, vs no stimulating sample
[9] = 1 mM metal solution and the insulin
[10] = 1 mM metal solution, no insulin
[11] = 40 mg/ml solution including 1 mM metal ion, no insulin
[12] = 0.1 μM metal solution, co-treatment with 1 μM insulin, vs no stimulating sample
[13] = 10 μM metal solution, co-treatment with 6 pM insulin, vs no stimulating sample

Compound	fold increase in glucose absorption [1, 3]	fold increase in glucose absorption [1, 4]	glucose absorption in contrast to C2C12 cells without stimulation (in words) [1]	fold increase in glucose absorption [1, 5]	fold increase in glucose absorption [1, 6]	fold increase in glucose absorption [1, 7]	fold increase in glucose absorption [1, 8]	fold increase in glucose absorption [1, 9]	fold increase in glucose absorption [1, 10]	fold increase in glucose absorption [1, 11]	fold increase in glucose absorption [1, 12]	fold increase in glucose absorption [1, 13]	also measured
Cr-TF: complex of the transferrin and Cr^3+	4.94 fold	5.0 fold	–	–	–	–	–	–	–	–	–	–	fold increase in glucose absorption ([1]; 80 μg/ml complex, vs no stimulating sample): 4.03 fold
Co-TF: complex of the transferrin and Co^3+, from apo-transferrin and Co^3+ solution (3:1 mole ratio)	7.01 fold	7.1 fold	–	–	–	–	–	–	–	–	–	–	fold increase in glucose absorption ([1]; 100 μg/ml complex, vs no stimulating sample): 4.97 fold
[O]=[V+2] [VO^2+, vanadyl]	–	–	enhanced	2.7 fold	2.61 fold	2.38 fold	3.4 fold	2.7 fold	1.9 fold	4.4 fold	–	–	fold increase in glucose absorption ([1]; 0.1 μM metal solution, co-treatment with 0.1 μM insulin, vs no stimulating sample): 2.62 fold; fold increase in glucose absorption ([1]; 10 μM metal solution, co-treatment with 10 μM insulin, vs no stimulating sample): 6.21 fold
[Cr+3] [Cr^3+, chromium (III) ion]	–	–	enhanced	–	2.21 fold	2.41 fold	3.74 fold	1.3 fold	1.6 fold	3.9 fold	4.84 fold	2.36 fold	fold increase in glucose absorption ([1]; 1 μM metal solution, co-treatment with 1 μM insulin, vs no stimulating sample): 3.71 fold
[Co+3] [Co^3+, cobalt (III) ion]	–	–	enhanced	4.37 fold	–	3.14 fold	8.5 fold	4.4 fold	2.5 fold	3.0 fold	7.73 fold	3.95 fold	change of cell type / damage of C2C12 cells ([2]; 100 μM metal solution with insulin co-treatment): the type of C2C12 cells changes and the C2C12 cells are damaged; change of cell type / damage of C2C12 cells ([2]; stimulation for 30 mins, 100 μM (high concentration) for metal solution): damaged at a certain level
VO-TF: complex of the transferrin and VO^2+	6.07 fold	6.1 fold	–	–	–	–	–	–	–	–	–	–	fold increase in glucose absorption ([1]; 40 μg/ml complex, vs no stimulating sample): 4.43 fold
